From patent US4837226A, “Polycyclic amine derivatives useful as cerebrovascular agents” (Warner-Lambert Company, priority 1988, dated 1989)

Experiments:
[1] = system: cultured rat cortical neurons; assay: Inhibition of glutamate stimulated [45Ca] influx (GCI) into cultured rat cortical neurons; assay type: cell-based; details: for IC50: Cortical neurone, cultured rat cortical neurons, glutamate stimulated; for inhibition of glutamate stimulated influx of calcium (in words): conclusion from Table III
Source text: (§1) The ability of the compounds of the instant invention to inhibit the glutamate and hypoxia stimulated influx of calcium into cultured rat cortical neurons is shown in Table III and Table IV respectively. The methodology for determining the ability of the compounds of the instant invention to inhibit the glutamate stimulated calcium influx (GCI) into cultured rat cortical neurons is to be found in: A. W. Probert and F. W. Marcoux, Soc. Neurosci. Abstr., 13, Part II, 754, (1987). Using a similar culture system, the ability of the compounds of the instant invention to inhibit the hypoxia stimulated influx of calcium (HCI) was determined by incubating cultured cells in an atmosphere of nitrogen (95%) and CO2 (5%) at 37° C. for a period of 4 hours. Calcium influx was determined by subtraction of the stimulated influx in the presence of tetrodotoxin (3 μM) and magnesium (10 mM) from that found in the absence (control) and in the presence of the test substance.

[2] = system: cultured rat cortical neurons; assay: Inhibition of hypoxia induced [45Ca] influx (HCI) into cultured rat cortical neurons; assay type: cell-based; details: for IC50: Cortical neurone, cultured rat cortical neurons, 95% N2/5% CO2, 37° C., 4 hours; for inhibition of hypoxia induced calcium influx (in words): conclusion from Table IV
Source text: as §1

[3] = target: phencyclidene (PCP) receptors; assay: [3H]TCP receptor binding (RBS1), rat brain cortex membranes; details: for IC50: [3H]TCP, rat brain cortex membranes, read-out: Inhibition of [^3 H]TCP Receptor Binding, RBS1 IC50; for inhibition of [^3 H]TCP receptor binding (in words): conclusion from Table II; for potency compared with TCP and MK-801 (in words): comparison from Table II
Description: Tritiated TCP binding, designated RBS1, was carried out essentially as described in J. Pharmacol. Exp. Ther., 238, 739-748 (1986).

## CNC1(c2ccccc2Cl)CCCCC1=O (centres unmarked) [ketamine, reference compound]
[1]
  IC50: 5500 nM
[2]
  IC50: 1900 nM

## C[C@]12N[C@H](Cc3ccccc31)c1ccccc12 [MK-801, reference compound]
[1]
  IC50: 51 nM
[2]
  IC50: 34 nM

## c1ccc(C2(N3CCCCC3)CCCCC2)cc1 [PCP, phencyclidene, reference compound]
[3]
  IC50: 40 nM
[1]
  IC50: 160 nM
[2]
  IC50: 45 nM

## CCNC12CCCCC1Oc1ccccc12 (centres unmarked) [Example 27, N-ethyl-6,7,8,9-tetrahydro-9a(5aH)-dibenzofuranamine]
[3]
  IC50: 141 nM
  inhibition of [^3 H]TCP receptor binding (in words): potent inhibitors
[1]
  IC50: 1800 nM
  inhibition of glutamate stimulated influx of calcium (in words): inhibit the glutamate stimulated influx of calcium
[2]
  IC50: 124 nM
  inhibition of hypoxia induced calcium influx (in words): potent inhibitors

## CNC12CCCCC1Cc1ccccc12 (centres unmarked) [Example 2, 1,2,3,4,9,9a-hexahydro-N-methyl-4aH-fluoren-4a-amine]
[3]
  IC50: 15 nM
  potency compared with TCP and MK-801 (in words): potency comparable to both TCP and MK-801
  inhibition of [^3 H]TCP receptor binding (in words): potent inhibitors
[1]
  IC50: 304 nM
  inhibition of glutamate stimulated influx of calcium (in words): inhibit the glutamate stimulated influx of calcium
[2]
  IC50: 5 nM
  inhibition of hypoxia induced calcium influx (in words): potent inhibitors

## COCCCNC12CCCCC1Cc1ccccc12 (centres unmarked) [Example 8, 1,2,3,4,9,9a-hexahydro-N-(3-methoxypropyl)-4aH-fluoren-4a-amine]
[3]
  IC50: 102 nM
  inhibition of [^3 H]TCP receptor binding (in words): potent inhibitors
[1]
  IC50: 1900 nM
  inhibition of glutamate stimulated influx of calcium (in words): inhibit the glutamate stimulated influx of calcium
[2]
  IC50: 43 nM
  inhibition of hypoxia induced calcium influx (in words): potent inhibitors

## NC12CCCCC1Cc1ccccc12 (centres unmarked) [Example 1, 1,2,3,4,9,9a-hexahydro-4aH-fluoren-4a-amine]
[3]
  IC50: 27 nM
  potency compared with TCP and MK-801 (in words): potency comparable to both TCP and MK-801
  inhibition of [^3 H]TCP receptor binding (in words): potent inhibitors
[2]
  IC50: 167 nM
  inhibition of hypoxia induced calcium influx (in words): potent inhibitors

## CNC12CCCCC1Sc1ccccc12 (centres unmarked) [Example 30, 6,7,8,9-tetrahydro-N-methyl-9a(5aH)-dibenzothiophenamine]
[3]
  IC50: 10 nM
  potency compared with TCP and MK-801 (in words): potency comparable to both TCP and MK-801
  inhibition of [^3 H]TCP receptor binding (in words): potent inhibitors
[1]
  IC50: 260 nM
  inhibition of glutamate stimulated influx of calcium (in words): inhibit the glutamate stimulated influx of calcium
[2]
  IC50: 200 nM
  inhibition of hypoxia induced calcium influx (in words): potent inhibitors

## CNC12CC(C)CCC1Cc1ccccc12 (centres unmarked) [Example 12, 1,2,3,4,9,9a-hexahydro-3-methyl-N-methyl-(4aH)-fluoren-4a-amine]
[3]
  IC50: 95 nM
  inhibition of [^3 H]TCP receptor binding (in words): potent inhibitors
[1]
  IC50: 1900 nM
  inhibition of glutamate stimulated influx of calcium (in words): inhibit the glutamate stimulated influx of calcium
[2]
  IC50: 95 nM
  inhibition of hypoxia induced calcium influx (in words): potent inhibitors
